Assay results reported in publication PMC8032764 (Scientific Reports, 2021).
Like-named read-outs stand apart in the source and are kept apart here.

What was measured:
[1] = tested on: T1, Muscarinic M5; assay: Cerep binding; design: species or system human; conditions: 10 μM; [3H]4-DAMP; hum. recomb. (CHO)
T1 construct: host or cells: CHO

[2] = tested on: T2, Neurokinin NK1; assay: Cerep binding; design: species or system human; conditions: 10 μM; [125I]BH-SP; hum., U-373MG cells
T2 construct: purchased Eurofins Cerep

[3] = tested on: T3, Serotonin transporter; assay: Cerep binding; design: species or system human; conditions: 10 μM; [3H]imipramine; hum. recomb. (CHO)
T3 construct: host or cells: CHO

[4] = tested on: T4, Galanin 2; assay: Cerep binding; design: species or system human; conditions: 10 μM; [125I]galanin; hum. recomb. (CHO)
T4 construct: purchased Eurofins Cerep

[5] = tested on: non-impaired rodents; assay: Cognitive performance in non-impaired rodents; type: in vivo; conditions: data not shown
[6] = tested on: Purinergic P2X; assay: Cerep binding; conditions: 10 μM; [3H]α,β-MeATP; rat urinary bladder
[7] = tested on: T5, Nociceptin (ORL1); assay: Cerep binding; design: species or system human; conditions: 10 μM; [3H]nociceptin; hum. recomb. (HEK-293)
T5 construct: host or cells: HEK-293

[8] = tested on: Adrenergic α2 (non-selective); assay: Cerep binding; conditions: 10 μM; [3H]RX 821002; rat cerebral cortex
[9] = tested on: healthy male and female volunteers; assay: Study WP29402 drug-drug interaction with itraconazole; type: in vivo, human
From the text: 3) Study WP29402 Drug-Drug Interaction (DDI) Itraconazole in Healthy Volunteers This was an open-label, three treatment, fixed sequence crossover study to investigate the […]
healthy male and female volunteers (age range 18-60 years; n: 12). As systemic basmisanil exposure was predicted to be higher than exposures achiev ed in previous clinical studies, regular EEG examinations were included and reviewed by a neurologist. Multiple oral doses […]
with the CYP3A inhibitor, itraconazole (200 m g OD).
Baseline EEG assessments were performed prior to the study (resting EEG eyes open/closed, intermittent photic stimulation, hyperventilation). On treatment days (1, 3, 5, 8) […]
hours and resting EEG eyes open/closed w ere performed. […]
administered with itraconazole.

[10] = tested on: T6, Vasopressin V1A; assay: Cerep binding; design: species or system human; conditions: 10 μM; [3H]AVP; hum. recomb. (CHO)
T6 construct: host or cells: CHO

[11] = tested on: male Sprague-Dawley rats; assay: Prepulse inhibition; type: in vivo, rat; conditions: 1, 3 and 10 mg/kg p.o., 30 min prior to testing
Protocol: intensities (72, 76, 80, 84 dB) at total plasma concentrations of 56 ± 20, 169 ± 20, and […]
Compound administered at 1, 3 and 10 mg/kg p.o. to male Sprague-Dawley rats 30 min prior to testing. Bars indicate mean percent prepulse inhibition (% PPI) ± SEM; 10 animals per dose group. Background noise: 68 dB. Startle pulse: 12 0 dB. For full methods refer to:
Nordquist et al. (2008). Effects of aripiprazole/OPC-14597 on motor activity, pharmacological models of psychosis, and brain activity in rats. Neuropharmacology , 54,405-416.
Animals were euthanized at the end of testing and plasma samples were collected approximately 60 min post administration; n = 4 rats per group.
(1 picture or pasted object on this page, not shown here)

[12] = tested on: male F-344 rats; assay: Social approach avoidance test
Protocol: Experiments on social approach avoidance were performed as described previously by[41] and[14]. A tracking system (Ethovision, Noldus, The Netherlands) was used to analyse each rat’s pathway.

[13] = tested on: T7, Serotonin 5-HT6; assay: Cerep binding; design: species or system human; conditions: 10 μM; [3H]LSD; hum. recomb. (CHO)
T7 construct: purchased Eurofins Cerep

[14] = tested on: T8, Calcitonin gene related peptide (CGRP); assay: Cerep binding; design: species or system human; conditions: 10 μM; [125I]hCGRPα; hum. recomb. (CHO)
T8 construct: purchased Eurofins Cerep

[15] = tested on: T9, Endothelin ETA; assay: Cerep binding; design: species or system human; conditions: 10 μM; [125I]endothelin-1; hum. recomb. (CHO)
T9 construct: purchased Eurofins Cerep

[16] = tested on: T10, Adrenergic β1; assay: Cerep binding; design: species or system human; conditions: 10 μM; [3H](-)CGP 12177; hum. recomb. (HEK-293)
T10 construct: host or cells: HEK-293

[17] = tested on: T11, Muscarinic M3; assay: Cerep binding; design: species or system human; conditions: 10 μM; [3H]4-DAMP; hum. recomb. (CHO)
T11 construct: host or cells: CHO

[18] = Pharmacokinetics, single intravenous dosing; type: in vivo; conditions: Beagle, dog, plasma, 1.0 mg/kg i.v.
[19] = tested on: T12, Cholecystokinin CCK1; assay: Cerep binding; design: species or system human; conditions: 10 μM; [125I]CCK-8s; hum. recomb. (CHO)
T12 construct: purchased Eurofins Cerep

[20] = tested on: Bombesin (non-selective); assay: Cerep binding; conditions: 10 μM; [125I][Tyr4]bombesin; rat cerebral cortex
[21] = tested on: T13, Muscarinic M4; assay: Cerep binding; design: species or system human; conditions: 10 μM; [3H]4-DAMP; hum. recomb. (CHO)
T13 construct: host or cells: CHO

[22] = Pharmacokinetics, single oral dosing, SAD study BP25129; type: in vivo, Human; conditions: for bioavailability / Tmax / AUC(0-t) / Cmax: human, plasma, tablet, n = 6 male; for Tmax: median, read-out: Tmax (range); for AUC(0-t) / Cmax: ± percent coefficient of variation
[23] = tested on: healthy subjects; assay: Safety in healthy volunteers in the PET and EEG studies; type: in vivo, human
[24] = tested on: T14, Serotonin 5-HT2C; assay: Cerep binding; design: species or system human; conditions: 10 μM; [3H]mesulergine; hum. recomb. (CHO)
T14 construct: purchased Eurofins Cerep

[25] = 240 mg BID with itraconazole 200 mg OD versus alone

## Cc1onc(-c2ccc(F)cc2)c1COc1ccc(C(=O)N2CCS(=O)(=O)CC2)cn1 [basmisanil]
[1]
  % Inhibition: -7%
[2]
  % Inhibition: 37%
[3]
  % Inhibition: 5%
[4]
  % Inhibition: -1%
[5]
  enhancement of cognitive performance: have not shown enhancement of cognitive performance
[6]
  % Inhibition: -7%
[7]
  % Inhibition: -4%
[8]
  % Inhibition: -8%
[9]; 240 mg BID alone
  maximum plasma concentration: 3510 ng/mL
[9]; 240 mg BID co-administered with itraconazole 200 mg OD
  maximum plasma concentration: 14500 ng/mL
[9]; [25]
  increase in maximum plasma concentration: 312%
  increase in systemic exposure at steady state: 374%
[9]; DDI study, n = 12
  maximum plasma concentration: approximately 14,500 ng/mL
[9]; co-administered with itraconazole
  EEG findings: no epileptiform discharges
[10]
  % Inhibition: 13%
[11]
  prepulse inhibition induced by prepulse intensities 72, 76, 80, 84 dB: does not impair prepulse inhibition
[12]; 3–100 mg/kg p.o., 1 h prior to testing
  time spent in the social compartment: did not significantly reduce the time spent in the social compartment
[12]; up to 100 mg/kg p.o.
  anxiogenic-like effect (time in social compartment and in hidden area): did not have an anxiogenic-like effect
[13]
  % Inhibition: 7%
[14]
  % Inhibition: -6%
[15]
  % Inhibition: 8%
[16]
  % Inhibition: 6%
[17]
  % Inhibition: 4%
[18]; n=3
  half-life: 9.8 ± 0.8 h
[18]; n=3, read-out: Total CL
  clearance: 2.2 ± 0.2 mL/min/kg
[18]; n=3, read-out: Vss
  Vd: 1.7 ± 0.2 L/kg
[19]
  % Inhibition: 10%
[20]
  % Inhibition: -24%
[21]
  % Inhibition: -4%
[22]; 45 mg oral
  bioavailability: ~75%
  Tmax: 3.5 h
  AUC(0-t): 6040 ± 38.7 ng·h/mL
  Cmax: 767 ± 15.4 ng/mL
[22]; 160 mg oral
  bioavailability: ~75%
  Tmax: 4 h
  AUC(0-t): 20300 ng·h/mL
  Cmax: 1860 ± 14.3 ng/mL
[22]; 330 mg oral
  bioavailability: ~75%
  Tmax: 4 h
  AUC(0-t): 30500 ng·h/mL
  Cmax: 2120 ± 24 ng/mL
[22]; single dose 160 mg
  maximum plasma concentration: 1860 ng/mL
[22]; single dose 660 mg
  maximum plasma concentration: 3710 ng/mL
[22]; single dose 1250 mg
  maximum plasma concentration: 4890 ng/mL
[23]; PET and EEG studies
  safety and tolerability: safe and well tolerated
[23]; any cohort
  adverse events: no severe adverse events
[24]
  % Inhibition: 10%
